Measured values as given in patent US20260327215A1, “ISOXAZOLIDINES AS RIPK1 INHIBITORS AND USE THEREOF” (GENZYME CORPORATION, priority 2022, published 2026).

Key:
[1] = target: T1, hRIPK1 (aa 1-375) fusion protein (Homo sapiens, UniProt Q13546); assay: ADP Glo assay: RIPK1 autophosphorylation (ATP to ADP conversion) inhibition; type: biochemical; details: 50 μM ATP; 30 min preincubation, 240 min incubation at room temperature; 1% DMSO
T1 construct: hRIPK1 (aa 1-375) fusion protein
T1 sequence (Q13546 1-375): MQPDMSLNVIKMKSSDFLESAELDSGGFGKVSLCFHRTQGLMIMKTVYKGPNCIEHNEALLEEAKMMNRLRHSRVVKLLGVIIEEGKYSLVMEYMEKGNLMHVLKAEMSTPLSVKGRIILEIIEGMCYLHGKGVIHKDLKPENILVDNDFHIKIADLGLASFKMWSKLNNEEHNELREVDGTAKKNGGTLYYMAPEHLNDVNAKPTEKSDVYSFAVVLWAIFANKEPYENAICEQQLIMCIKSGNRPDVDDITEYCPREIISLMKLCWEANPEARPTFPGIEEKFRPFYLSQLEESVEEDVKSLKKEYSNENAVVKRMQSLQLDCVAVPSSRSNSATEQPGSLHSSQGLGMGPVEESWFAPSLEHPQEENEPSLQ
Procedure: Evaluation of Receptor-Interacting Protein Kinase 1 Inhibition.
The catalytic activity of RIPK1 was measured by monitoring the conversion of Adenosine triphosphate (ATP) to Adenosine diphosphate (ADP) due to autophosphorylation using an ADP-Glo kinase kit (Promega, catalog no. V9104).
After another 240 minutes incubation at room temperature, 5 μl Promega ADP-Glo reagent I were added to quench the reaction and deplete unconsumed ATP. After an incubation period of 30 minutes, 10 μl Promega ADP-Glo detection reagent II were added resulting in conversion of ADP to ATP, which generates a light-reaction between luciferase and luciferin. Luminescence was quantified after 30 minutes with a Pherastar FS (BMG LABTECH, Ortenberg).
The adjustment was obtained by nonlinear regression using the Levenberg Marquardt algorithm.

U937 cells = assay: U937 cell assay: inhibition of TNFa/zVAD-induced cell death (necroptosis), MTS viability; type: cell-based

Row | IC50 [1] | Structure (SMILES) | IC50 (U937 cells)
1 | 0.034 µM | COc1cc(N2CCC(C(=O)N3OCC[C@H]3c3cc(F)cc(C#N)c3)CC2)ncn1 [Example 4, (S)-3-fluoro-5-(2-(1-(6-methoxypyrimidin-4-yl)piperidine-4-carbonyl)isoxazolidin-3-yl)benzonitrile] | 0.08 µM
2 |  | COc1ncnc(N2CCC(C(=O)N3OCC[C@H]3c3cc(F)cc(C#N)c3)CC2)c1F [Example 5, 3-fluoro-5-[(3S)-2-[1-(5-fluoro-6-methoxy-pyrimidin-4-yl)piperidine-4-carbonyl]isoxazolidin-3-yl]benzonitrile] | 0.008 µM
